Here are results for five molecules from patent US11385223B2, “Anastasis biosensor” (THE JOHNS HOPKINS UNIVERSITY, priority 2012, dated 2022).

Molecules are shown by their SMILES. Numbered stars: 1 amine (or outer) side, 2 acyl side, 3 side chain; on linkers, the order of the positions; unused ones are H or OH. Bridge positions count the residues as written; N and C are the ends. Square brackets hold non-standard residues; d marks the D form. Peptide text beside a SMILES is read from it. I, II: the chains in the order shown. Actinocin(9to1) = Cc1c2oc3c(C)ccc(C(=O)[*:1])c3nc-2c(C(=O)[*:2])c(N)c1=O; NMeV = CN[C@H](C(=O)O)C(C)C; Sar = CNCC(=O)O

Data set [1] relates to liver cells and NIH 3T3 cells. Kind of data set: Transient actinomycin D exposure after removal of apoptotic inducers (caspase-3 Western blot, trypan blue exclusion). In kind it is cell-based. The procedure:
FIG. 14A-14F: Critical contributing factors in reversal of apoptosis. (FIG. 14A) RNA blot for detecting new RNA synthesis in untreated vs. treated and washed (Washed) liver cells 1 h after a 5-h exposure to 4.5% ethanol and with and without transient exposure (1 h, 1 μg/ml) to actinomycin D (AMD). No s4U served as negative control for the probe binding to RNA. (FIG. 14B) Western blot analysis of the cleavage of caspase-3 (Casp-3) on the total lysate of untreated, treated (5-h exposure to 4.5% ethanol for liver cells, 20-h exposure to 10% DMSO for NIH 3T3 cells), and washed liver cells and NIH 3T3 cells with and without transient exposure to actinomycin D (AMD) immediately after removal of apoptotic stimuli. The AMD-exposed cells were cultured in fresh medium for 23 h and then subjected to the analysis. c, cleaved form. […] The AMD exposed-cells were cultured in fresh medium for 23 h and then subjected to the assay. ns, p>0.05; *p<0.05; n=3 independent experiments. Error bars denote SD. (FIG. 14D) A time-course microarray study in liver cells, log 2-fold change of gene expression comparison between ethanol-induced apoptotic cells (RO), untreated cells (Ctrl), and induced cells that were then washed and further cultured in fresh medium for 3 (R3), 6 (R6), 24 (R24), and 48 h (R48). The log 2 signal values from three biological replicates were averaged (geometric mean) for each time point. […] The corresponding cells were exposed to the inhibitors after apoptotic stimuli had been removed from the treated cells and then further cultured for 24 h. ns, p>0.05; *P<0.05; n=3 independent experiments. Error bars denote SD. (FIG. 14F) Proposed model for reversal of apoptosis. Expression of multiple prosurvival factors and new transcripts during reversal of apoptosis promotes cell survival by suppressing the activated apoptotic pathways and repairing the cells.
To gain insight into the mechanism by which cells reverse apoptosis and survive, we first tested whether new transcription is required. […]
On the technique in general: In western blotting, separated proteins are transferred to a membrane and probed.

The test system of data set [2] is primary mouse macrophages. Kind of data set: Apoptosis induction and its reversal in primary macrophages (morphology). In kind it is cell-based.
For data set [3], the system named is NIH 3T3 cells. Kind of data set: Apoptosis induction and its reversal in NIH 3T3 cells (morphology, caspase-3 Western blot). Type of data set: cell-based.
In data set [4] the test system is HeLa cells. Kind of data set: Apoptosis induction and its reversal in HeLa cells expressing caspase biosensor NES-DEVD-YFP-NLS.
The test system of data set [5] is primary rat heart cells.
Data set [6] concerns primary mouse liver cells.
Data set [7] concerns Mustela putoris furo (Mpf) brain cells. The experiment in a line: Apoptosis induction and its reversal in Mpf brain cells (morphology, annexin V-FITC). In kind it is cell-based, ferret.
Where [8] appears, read: transient exposure (1 h, 1 μg/ml) immediately after removal of apoptotic stimuli, then 23 h fresh medium.
The mark [9] stands for this setting: 4.3% ethanol 5 h, washed, cultured 2 h.

As for `Cc1c2oc3c(C)ccc(C(=O)N[C@@H]4C(=O)N[C@H](C(C)C)C(=O)N5CCC[C@H]5C(=O)N(C)CC(=O)N(C)[C@@H](C(C)C)C(=O)O[C@@H]4C)c3nc-2c(C(=O)N[C@@H]2C(=O)N[C@H](C(C)C)C(=O)N3CCC[C@H]3C(=O)N(C)CC(=O)N(C)[C@@H](C(C)C)C(=O)O[C@@H]2C)c(N)c1=O` [actinomycin D] (I: T[dV]P[Sar][NMeV] / II: T[dV]P[Sar][NMeV]; ester I:1-I:C, II:1-II:C; linker I:N-II:N via Actinocin(9to1)), the “cell death in control cells not treated with apoptotic inducers” value in data set [1] (same concentration of actinomycin D) is “did not cause significant cell death”. In data set [1] (setting [8]), the “caspase-3 cleavage (Western blot) after removal of apoptotic inducers” value was “persistence of cleaved caspase-3” and the “cell death by trypan blue staining after removal of apoptotic inducers” value is “irreversible cell death”.

Turning to `CC(C)(O)/C=C/C(=O)[C@](C)(O)[C@H]1[C@H](O)C[C@@]2(C)[C@@H]3CC=C4[C@@H](C=C(O)C(=O)C4(C)C)[C@]3(C)C(=O)C[C@]12C` [cucurbitacin I], the “cells that recovered morphology after removal of the inducer” value (“cells that recovered morphology” for short) in data set [2] (1 μM cucurbitacin I 24 h, then removal of inducer for 24 h) is about 90%. For the same molecule, in data set [2] (1 μM cucurbitacin I for 24 h), the “cells displaying morphological hallmarks of apoptosis (nuclear condensation, mitochondrial fragmentation, cell shrinkage)” value (from here on “cells displaying morphological hallmarks”) is “Greater than 90%”.

Regarding `C[S+](C)[O-]` [DMSO, dimethyl sulfoxide], the “cells that reversed all signs of apoptosis after removal of the inducer” value in data set [3] (10% DMSO 20 h, then washed, 24 h) is over 90%. In addition, the “NIH 3T3 cells exhibiting multiple hallmarks of apoptosis” value in data set [3] (10% DMSO for 20 h) is over 90%. Also, in data set [3] (NIH 3T3 cells induced with DMSO), the “caspase-3 cleavage (Western blot)” value is “increase in cleaved caspase-3”.

As to `CCO` [ethanol], in data set [4] (setting [9]), the “cells that recovered normal morphology after removal of the inducer” value is given as over 90% and the “recovered cells that retained nuclear YFP” value is recorded as 32%. The “cells exhibiting morphological hallmarks of apoptosis (nuclear condensation, membrane blebbing, cell shrinkage)” value in data set [4] (4.3% ethanol for 3 h) is reported as “vast majority”. In addition, the “time to regain normal morphology after removal of the apoptotic inducer” value in data set [4] (4.3% ethanol, then washed) was at most 2 h. Besides, the “formation of micronuclei after reversal of apoptosis” value in data set [4] (after reversal of ethanol-induced apoptosis, cytokinesis-block micronucleus assay) is given as “Increased in formation of micronuclei”. In addition, the “cells that recovered morphology” value in data set [5] (4.5% ethanol 5 h, then removal of inducer for 24 h) is on record as about 90%. For the same molecule, the “cells labeled with annexin V-FITC” value in data set [5] (4.5% ethanol 5 h, annexin V-FITC applied ten minutes before washing) is given as “Greater than 90%”. The “cells displaying morphological hallmarks” value in data set [5] (4.5% ethanol for 5 h) is “Greater than 90%”. Also, the “cells that reversed all signs of apoptosis after removal of the inducer” value in data set [6] (4.5% ethanol 5 h, then washed, 24 h) was over 90%. Further, the “morphological hallmarks of apoptosis (cell shrinkage, plasma membrane blebbing, nuclear condensation, altered mitochondrial morphology)” value in data set [6] (4.5% ethanol for 2.5 h, time-lapse live-cell microscopy) was “displayed morphological hallmarks of apoptosis”. Besides, in data set [6] (4.5% ethanol for 5 h), the “liver cells that shrank and displayed morphological hallmarks of apoptosis” value is listed as over 80%. Also, in data set [6] (liver cells induced with ethanol), the “caspase-3 cleavage (Western blot)” value is reported as “increase in cleaved caspase-3”.

For `C/C1=C\[C@H](C)C[C@H](C)OC(=O)C[C@H](c2ccc(O)cc2)NC(=O)[C@@H](Cc2c(Br)[nH]c3ccccc23)N(C)C(=O)[C@H](C)NC(=O)[C@@H](C)C1` [jasplakinolide], in data set [7] (2 μM jasplakinolide 50 h, then removal of inducer for 24 h), the “cells that recovered morphology” value is about 90%. Besides, the “cells labeled with annexin V-FITC” value in data set [7] (2 μM jasplakinolide 50 h, annexin V-FITC applied ten minutes before washing) is “Greater than 90%”. Also, the “cells displaying morphological hallmarks” value in data set [7] (2 μM jasplakinolide for 50 h) is reported as “Greater than 90%”.
